Data: patent publication US9260417B2, “Therapeutic methods and compositions involving allosteric kinase inhibition” (AMITECH THERAPEUTIC SOLUTIONS, INC., priority 2010, dated 2016)
pEC50, pKd: −log10 of the molar value.

Columns and labels:
PDGFRA = PDGFRA (Homo sapiens (Human), UniProt P16234); assay: KINOMEscan competitive binding assay
Experimental: (§3) In vitro kinase screen and competitive binding assay. […] For the competitive binding assay, test compounds were screened at 10 μM against 70 diverse kinase targets for competitive binding using the KINOMEscan™ technology (Ambit Biosciences) (Karaman, et al. (2008) Nature biotechnology 26:127-132). 11-point Kd curves were determined for hits identified during the initial screen.

PDGFRB = PDGFRB (Homo sapiens (Human), UniProt P09619); assay: KINOMEscan competitive binding assay
Experimental: as §3

[1] = biological target: B-RAF/C-RAF heterodimerization (Homo sapiens (Human), UniProt P15056); assay: B-RAF/C-RAF heterodimerization in HUVECs (immunoprecipitation/Western); type: cell-based; conditions: ECs stimulated with bFGF or VEGF
KIT = KIT (Homo sapiens (Human), UniProt P10721); assay: KINOMEscan competitive binding assay
Experimental: as §3

FLT3 = FLT3 (Homo sapiens (Human), UniProt P36888); assay: KINOMEscan competitive binding assay
Experimental: as §3

ERK2 = ERK2 (Homo sapiens (Human), UniProt P28482); assay: In vitro kinase panel (SelectScreen); type: biochemical
Excerpt: (§1) In vitro kinase screen and competitive binding assay. Sorafenib as well as test compounds were submitted to Invitrogen and screened using their SelectScreen™ Profiling Service.

FGFR4 = FGFR4 (Homo sapiens (Human), UniProt P22455); assay: In vitro kinase panel (SelectScreen); type: biochemical
Excerpt: as §1

MEK1 = MEK1 (Homo sapiens (Human), UniProt Q02750); assay: In vitro kinase panel (SelectScreen); type: biochemical
Excerpt: as §1

PAK2 = PAK2 (Homo sapiens (Human), UniProt Q13177); assay: In vitro kinase panel (SelectScreen); type: biochemical
Excerpt: as §1

PKC beta I = PKC beta I (Homo sapiens (Human), UniProt P05771); assay: In vitro kinase panel (SelectScreen); type: biochemical
Excerpt: as §1

CK2 alpha 1 = CK2 alpha 1 (Homo sapiens (Human), UniProt P68400); assay: In vitro kinase panel (SelectScreen); type: biochemical
Excerpt: as §1

PKC gamma = PKC gamma (Homo sapiens (Human), UniProt P05129); assay: In vitro kinase panel (SelectScreen); type: biochemical
Excerpt: as §1

PKC beta II = PKC beta II (Homo sapiens (Human), UniProt P05771); assay: In vitro kinase panel (SelectScreen); type: biochemical
Excerpt: as §1

CDK2 = CDK2 (Homo sapiens (Human), UniProt P24941); assay: In vitro kinase panel (SelectScreen); type: biochemical
Excerpt: as §1

PKC epsilon = PKC epsilon (Homo sapiens (Human), UniProt Q02156); assay: In vitro kinase panel (SelectScreen); type: biochemical
Excerpt: as §1

ERK1 = ERK1 (Homo sapiens (Human), UniProt P27361); assay: In vitro kinase panel (SelectScreen); type: biochemical
Excerpt: as §1

MEK2 = MEK2 (Homo sapiens (Human), UniProt P36507); assay: In vitro kinase panel (SelectScreen); type: biochemical
Excerpt: as §1

PKC alpha = PKC alpha (Homo sapiens (Human), UniProt P17252); assay: In vitro kinase panel (SelectScreen); type: biochemical
Excerpt: as §1

JNK2 = JNK2 (Homo sapiens (Human), UniProt P45984); assay: In vitro kinase panel (SelectScreen); type: biochemical
Excerpt: as §1

MET (cMet) = MET (cMet) (Homo sapiens (Human), UniProt P08581); assay: In vitro kinase panel (SelectScreen); type: biochemical
Excerpt: as §1

KDR (VEGFR2) = KDR (VEGFR2) (Homo sapiens (Human), UniProt P35968); assay: In vitro kinase panel (SelectScreen); type: biochemical
Experimental: (§4) In vitro kinase screen and competitive binding assay. […] 11-point Kd curves were determined for hits identified during the initial screen.

FLT3 D835Y = FLT3 D835Y (Homo sapiens (Human), UniProt P36888, D835Y); assay: In vitro kinase panel (SelectScreen); type: biochemical
Experimental: as §4

EGFR L858R = EGFR L858R (Homo sapiens (Human), UniProt P00533, L858R); assay: In vitro kinase panel (SelectScreen); type: biochemical
Experimental: as §4

XPA-1 cells = assay: Cell cycle analysis of XPA-1 cells (flow cytometry); type: cell-based; conditions: 5 μM, 20 h
Experimental: For cell cycle analysis, cells were grown in complete DMEM+10% FBS in the presence of each inhibitor and harvested after 20 h of inhibitor treatment. Cell cycle analysis was performed by flow cytometry following propidium iodide staining. The cells were harvested, fixed with ice cold methanol, treated for 45 min with 10 μg/ml of RNAse and resuspended in PBS containing 10 μg/ml of PI, and analysed by flow cytometry. […] For corresponding confocal microscopy images, cells attached to coverslips were fixed with cold methanol and permeabilized in PBS containing 0.1% triton X-100 for two minutes and blocked for 60 minutes, at room temperature with 2% BSA in PBS. Cells were stained with the DNA binding dye TOPRO-3 (Invitrogen) to label the DNA and laminB (Santa Cruz) to label the nuclear envelope. The anti-Lamin B antibody was used at a 1:100 dilution for two hours at room temperature. After washing several times with PBS, cells were stained for two hours at room temperature, with secondary antibody diluted 1:300 and co-incubated with TOPRO-3 (1:500) (Invitrogen). Samples were mounted in Vectashield hard-set mounting media (Vector Laboratories) and imaged on a Nikon Eclipse Cl confocal microscope with a 1.4 NA 60× oil-immersion lens, using minimum pinhole (30 μm). Images were captured and processed using EZ-C1 3.50 imaging software (Nikon, Inc). Scale bars, 10 μm.

SK-MEL-28 = assay: Tumor cell viability; type: cell-based; conditions: Melanoma SK-MEL-28, B-RAF V600E
Experimental: (§2) For XTT assays, cells were grown in 96-well plates overnight and all assays were conducted in growth medium will full serum and additives. Compounds were serially diluted in DMSO and then further diluted into the medium to give the appropriate concentration while minimizing precipitation associated with serial diluting in medium alone Inhibitors were added for 72 h and cell viability was quantified at 450 nm after the addition of 1 mg/ml XTT solution (Sigma-Aldrich) in phenol-red free DMEM medium containing […] (Sigma-Aldrich). Dose-response curves were plotted using GraphPad Prism software and EC50s were calculated using this program.

SK-MEL-2 = assay: Tumor cell viability; type: cell-based; conditions: Melanoma SK-MEL-2, N-Ras
Experimental: as §2

MCF7 = assay: Tumor cell viability; type: cell-based; conditions: Breast MCF7, PI3K
Experimental: as §2

R40P = assay: Tumor cell viability; type: cell-based; conditions: Pancreatic (mouse spontaneous model) R40P, K-Ras
Experimental: as §2

HT29 = assay: Tumor cell viability; type: cell-based; conditions: Colon HT29, B-RAF V600E
Experimental: as §2

CHL-1 = assay: Tumor cell viability; type: cell-based; conditions: Melanoma CHL-1
Experimental: as §2

MDA-MB231 = assay: Tumor cell viability; type: cell-based, human; conditions: Breast AC MDA-MB231, B-RAF/Ras
Experimental: as §2

Sequence of PKC beta II (P05771 other isoform, or with tags, fused parts or gaps): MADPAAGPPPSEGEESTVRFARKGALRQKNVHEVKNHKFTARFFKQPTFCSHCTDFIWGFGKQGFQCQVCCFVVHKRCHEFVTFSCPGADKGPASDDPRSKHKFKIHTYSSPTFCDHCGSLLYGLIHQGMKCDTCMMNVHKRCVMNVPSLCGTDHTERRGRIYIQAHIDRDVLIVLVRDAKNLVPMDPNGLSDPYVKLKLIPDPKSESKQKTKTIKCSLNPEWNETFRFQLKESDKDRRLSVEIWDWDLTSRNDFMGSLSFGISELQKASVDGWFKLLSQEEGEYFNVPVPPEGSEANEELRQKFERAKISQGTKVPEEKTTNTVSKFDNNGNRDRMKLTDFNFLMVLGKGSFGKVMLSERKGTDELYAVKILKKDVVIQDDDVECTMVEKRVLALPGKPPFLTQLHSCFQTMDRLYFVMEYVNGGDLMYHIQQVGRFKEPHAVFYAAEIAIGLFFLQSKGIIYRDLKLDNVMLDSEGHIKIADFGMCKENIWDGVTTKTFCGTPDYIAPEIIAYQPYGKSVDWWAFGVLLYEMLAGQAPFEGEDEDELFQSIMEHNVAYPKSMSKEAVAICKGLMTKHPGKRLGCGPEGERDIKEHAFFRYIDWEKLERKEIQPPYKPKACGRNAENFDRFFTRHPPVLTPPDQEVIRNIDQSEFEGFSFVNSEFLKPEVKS
Sequence of FGFR4 (P22455 22-802): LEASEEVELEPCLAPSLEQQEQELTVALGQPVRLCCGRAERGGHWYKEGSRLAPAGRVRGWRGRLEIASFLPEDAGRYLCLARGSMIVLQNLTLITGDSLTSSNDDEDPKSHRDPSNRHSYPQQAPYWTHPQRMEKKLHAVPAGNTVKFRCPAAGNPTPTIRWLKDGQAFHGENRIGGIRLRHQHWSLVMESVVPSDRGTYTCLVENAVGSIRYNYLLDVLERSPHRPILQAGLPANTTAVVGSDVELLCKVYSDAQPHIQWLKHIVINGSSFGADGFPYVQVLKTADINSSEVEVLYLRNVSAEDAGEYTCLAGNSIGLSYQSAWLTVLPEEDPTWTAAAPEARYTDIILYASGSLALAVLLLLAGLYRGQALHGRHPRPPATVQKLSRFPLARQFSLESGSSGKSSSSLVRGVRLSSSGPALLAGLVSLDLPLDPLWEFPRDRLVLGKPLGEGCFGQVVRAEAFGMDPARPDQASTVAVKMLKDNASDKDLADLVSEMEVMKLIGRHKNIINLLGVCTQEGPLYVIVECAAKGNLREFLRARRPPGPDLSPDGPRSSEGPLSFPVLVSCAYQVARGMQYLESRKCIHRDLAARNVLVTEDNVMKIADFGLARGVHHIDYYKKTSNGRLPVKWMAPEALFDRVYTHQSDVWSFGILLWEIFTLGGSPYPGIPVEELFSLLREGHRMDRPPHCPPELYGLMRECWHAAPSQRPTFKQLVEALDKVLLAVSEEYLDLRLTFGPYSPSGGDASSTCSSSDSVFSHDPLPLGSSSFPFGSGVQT
Sequence of PKC epsilon (Q02156 whole entry): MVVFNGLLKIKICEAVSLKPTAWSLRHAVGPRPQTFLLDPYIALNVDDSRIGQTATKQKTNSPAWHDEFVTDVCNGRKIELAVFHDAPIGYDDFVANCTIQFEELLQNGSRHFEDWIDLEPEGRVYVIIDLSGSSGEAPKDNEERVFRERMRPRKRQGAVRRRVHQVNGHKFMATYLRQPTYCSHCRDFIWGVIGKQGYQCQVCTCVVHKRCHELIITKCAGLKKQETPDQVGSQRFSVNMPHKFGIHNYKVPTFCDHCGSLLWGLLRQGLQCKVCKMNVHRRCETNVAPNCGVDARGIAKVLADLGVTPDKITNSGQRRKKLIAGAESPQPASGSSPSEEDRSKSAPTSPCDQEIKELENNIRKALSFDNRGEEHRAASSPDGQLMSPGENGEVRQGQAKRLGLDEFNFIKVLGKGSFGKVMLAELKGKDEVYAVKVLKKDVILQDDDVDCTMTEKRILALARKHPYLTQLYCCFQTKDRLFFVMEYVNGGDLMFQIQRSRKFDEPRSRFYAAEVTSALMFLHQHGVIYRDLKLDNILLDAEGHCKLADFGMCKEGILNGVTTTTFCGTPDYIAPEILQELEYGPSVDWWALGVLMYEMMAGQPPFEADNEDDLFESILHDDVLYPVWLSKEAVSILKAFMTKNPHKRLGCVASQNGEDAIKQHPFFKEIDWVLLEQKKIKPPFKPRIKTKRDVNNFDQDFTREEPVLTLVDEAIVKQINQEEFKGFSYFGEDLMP
Sequence of MEK1 (Q02750 whole entry): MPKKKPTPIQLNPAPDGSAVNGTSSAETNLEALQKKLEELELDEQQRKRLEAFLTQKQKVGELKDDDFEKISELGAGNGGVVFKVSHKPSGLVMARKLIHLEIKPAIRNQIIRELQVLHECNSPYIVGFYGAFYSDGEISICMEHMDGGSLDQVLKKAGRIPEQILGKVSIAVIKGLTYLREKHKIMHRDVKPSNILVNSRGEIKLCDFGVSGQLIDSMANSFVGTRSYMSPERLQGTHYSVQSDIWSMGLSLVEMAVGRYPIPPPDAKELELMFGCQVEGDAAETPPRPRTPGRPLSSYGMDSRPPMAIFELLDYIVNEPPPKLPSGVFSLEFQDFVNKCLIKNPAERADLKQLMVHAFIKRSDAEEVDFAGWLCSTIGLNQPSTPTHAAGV
Sequence of ERK2 (P28482 whole entry): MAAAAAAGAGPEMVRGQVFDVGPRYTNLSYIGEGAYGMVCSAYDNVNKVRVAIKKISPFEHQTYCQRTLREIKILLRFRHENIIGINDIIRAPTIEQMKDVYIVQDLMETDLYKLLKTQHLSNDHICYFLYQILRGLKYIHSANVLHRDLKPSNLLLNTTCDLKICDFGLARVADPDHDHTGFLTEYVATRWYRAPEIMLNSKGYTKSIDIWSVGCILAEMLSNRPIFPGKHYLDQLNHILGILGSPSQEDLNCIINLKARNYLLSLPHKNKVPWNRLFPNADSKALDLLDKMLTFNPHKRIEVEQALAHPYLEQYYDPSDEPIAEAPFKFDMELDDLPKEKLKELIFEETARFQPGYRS
Sequence of JNK2 (P45984 whole entry): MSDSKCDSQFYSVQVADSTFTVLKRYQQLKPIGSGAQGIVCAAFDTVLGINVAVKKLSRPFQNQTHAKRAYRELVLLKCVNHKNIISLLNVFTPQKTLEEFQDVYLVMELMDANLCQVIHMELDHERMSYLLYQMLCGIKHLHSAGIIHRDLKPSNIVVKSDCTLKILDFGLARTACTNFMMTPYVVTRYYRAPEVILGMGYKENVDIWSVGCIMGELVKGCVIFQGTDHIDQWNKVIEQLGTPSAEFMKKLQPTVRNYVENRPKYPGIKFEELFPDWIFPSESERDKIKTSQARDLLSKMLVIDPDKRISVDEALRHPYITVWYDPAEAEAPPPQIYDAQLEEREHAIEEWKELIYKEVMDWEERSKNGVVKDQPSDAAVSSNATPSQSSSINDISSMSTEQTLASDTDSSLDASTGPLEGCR
Sequence of MEK2 (P36507 whole entry): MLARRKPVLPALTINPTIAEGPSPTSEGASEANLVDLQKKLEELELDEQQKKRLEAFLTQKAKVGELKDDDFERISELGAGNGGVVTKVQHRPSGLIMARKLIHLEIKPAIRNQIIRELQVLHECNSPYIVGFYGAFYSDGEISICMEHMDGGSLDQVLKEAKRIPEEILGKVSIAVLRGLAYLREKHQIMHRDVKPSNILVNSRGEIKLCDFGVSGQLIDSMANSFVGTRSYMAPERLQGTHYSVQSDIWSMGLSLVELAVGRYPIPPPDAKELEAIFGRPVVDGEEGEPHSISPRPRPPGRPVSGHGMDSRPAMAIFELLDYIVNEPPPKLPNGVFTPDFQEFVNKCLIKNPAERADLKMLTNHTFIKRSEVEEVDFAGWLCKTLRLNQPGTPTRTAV
Sequence of PAK2 (Q13177 whole entry): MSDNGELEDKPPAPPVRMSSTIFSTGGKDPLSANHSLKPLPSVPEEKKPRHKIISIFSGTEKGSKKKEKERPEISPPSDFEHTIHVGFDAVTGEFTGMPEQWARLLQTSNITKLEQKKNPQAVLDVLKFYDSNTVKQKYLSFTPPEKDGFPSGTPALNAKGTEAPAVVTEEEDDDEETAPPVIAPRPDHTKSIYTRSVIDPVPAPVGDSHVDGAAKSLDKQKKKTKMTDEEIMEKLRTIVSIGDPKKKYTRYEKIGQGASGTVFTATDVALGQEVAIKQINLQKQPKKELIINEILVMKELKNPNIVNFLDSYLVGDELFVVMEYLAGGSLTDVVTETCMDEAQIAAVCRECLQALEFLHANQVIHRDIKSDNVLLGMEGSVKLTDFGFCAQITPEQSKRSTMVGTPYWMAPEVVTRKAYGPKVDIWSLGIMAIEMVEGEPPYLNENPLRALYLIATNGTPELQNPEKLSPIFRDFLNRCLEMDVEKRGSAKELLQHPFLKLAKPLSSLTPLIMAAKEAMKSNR

Compound: Nc1cc(Oc2ccc(-c3nnc(Nc4cccc(C(F)(F)F)c4)[nH]3)cc2)ncn1 [Compound 3]
- pKd (PDGFRA; PDGFRα): 7.49
- pKd (PDGFRB; PDGFRβ): 7.40
- B-RAF/C-RAF heterodimer formation [1]: had no effect
- pKd (KIT): 8.43
- pKd (FLT3): 8.85
- % Inhibition at 10 μM (ERK2): −4%
- % Inhibition at 10 μM (FGFR4): −6%
- % Inhibition at 10 μM (MEK1): −5%
- % Inhibition at 10 μM (PAK2): 2%
- % Inhibition at 10 μM (PKC beta I): −3%
- % Inhibition at 10 μM (CK2 alpha 1): −3%
- % Inhibition at 10 μM (PKC gamma): 6%
- % Inhibition at 10 μM (PKC beta II): −3%
- % Inhibition at 10 μM (CDK2): 2%
- % Inhibition at 10 μM (PKC epsilon): −3%
- % Inhibition at 10 μM (ERK1): 1%
- % Inhibition at 10 μM (MEK2): −8%
- % Inhibition at 10 μM (PKC alpha): −5%
- % Inhibition at 10 μM (JNK2): −7%
- % Inhibition at 10 μM (MET (cMet)): 7%
- % Inhibition at 10 μM (KDR (VEGFR2)): 31%
- % Inhibition at 10 μM (FLT3 D835Y): 29%
- % Inhibition at 10 μM (EGFR L858R): −3%
- cell cycle / mitotic progression (XPA-1 cells): showed no effect

Compound: CSc1nc(N)cc(Oc2ccc(-c3nnc(Nc4cccc(C(F)(F)F)c4)[nH]3)cc2)n1 [Compound 6]
- % Control (PDGFRA; 10 uM, PDGFRA): 0.25%
- % Control (PDGFRB; 10 uM, PDGFRB): 0.5%
- B-RAF/C-RAF heterodimer formation [1]: completely inhibited
- % Control (KIT; 10 uM): 0%
- % Control (FLT3; 10 uM): 2.8%
- pEC50 (SK-MEL-28): 6.40
- pEC50 (SK-MEL-2): 6.85
- pEC50 (MCF7): 6.17
- pEC50 (R40P): 6.18
- pEC50 (HT29): 6.21
- pEC50 (CHL-1): 7.00
- pEC50 (MDA-MB231): 6.32
- % Inhibition at 10 μM (ERK2): −5%
- % Inhibition at 10 μM (FGFR4): −7%
- % Inhibition at 10 μM (MEK1): −2%
- % Inhibition at 10 μM (PAK2): 1%
- % Inhibition at 10 μM (PKC beta I): 2%
- % Inhibition at 10 μM (CK2 alpha 1): 0%
- % Inhibition at 10 μM (PKC gamma): 5%
- % Inhibition at 10 μM (PKC beta II): −4%
- % Inhibition at 10 μM (CDK2): 2%
- % Inhibition at 10 μM (PKC epsilon): −1%
- % Inhibition at 10 μM (ERK1): 2%
- % Inhibition at 10 μM (MEK2): −6%
- % Inhibition at 10 μM (PKC alpha): −1%
- % Inhibition at 10 μM (JNK2): −4%
- % Inhibition at 10 μM (MET (cMet)): 3%
- % Inhibition at 10 μM (KDR (VEGFR2)): 16%
- % Inhibition at 10 μM (FLT3 D835Y): 9%
- % Inhibition at 10 μM (EGFR L858R): −10%
- cell cycle / mitotic progression (XPA-1 cells): G2/M arrest in all tumor cell lines tested

Compound: CNC(=O)c1cc(Oc2ccc(NC(=O)Nc3ccc(Cl)c(C(F)(F)F)c3)cc2)ccn1 [sorafenib, reference compound]
- pEC50 (SK-MEL-28; Homo sapiens): 4.75
- pEC50 (SK-MEL-2; Homo sapiens): 4.85
- pEC50 (MCF7; Homo sapiens): < 4.70
- pEC50 (R40P): 5.03
- pEC50 (HT29; Homo sapiens, HT-29): < 4.70
- pEC50 (CHL-1; Homo sapiens): 5.21
- pEC50 (MDA-MB231; Homo sapiens, MDA-MB-231): < 5.00
- inhibition at 10 µM (ERK2): 0%
- inhibition at 10 µM (FGFR4): 7%
- inhibition at 10 µM (MEK1): 0%
- inhibition at 10 µM (PAK2): 2%
- inhibition at 10 µM (PKC beta I): -1%
- inhibition at 10 µM (CK2 alpha 1): -3%
- inhibition at 10 µM (PKC gamma): -3%
- inhibition at 10 µM (PKC beta II): -3%
- inhibition at 10 µM (CDK2): 2%
- inhibition at 10 µM (PKC epsilon): -2%
- inhibition at 10 µM (ERK1): 3%
- inhibition at 10 µM (MEK2): -4%
- inhibition at 10 µM (PKC alpha): -2%
- inhibition at 10 µM (JNK2): 10%
- inhibition at 10 µM (MET (cMet)): 2%
- inhibition at 10 µM (FLT3 D835Y): 72%
- cell cycle / mitotic progression (XPA-1 cells): had no effect on mitotic progression
